Where a SMILES comes first, the peptide text is derived from it. The star is where a group is joined. FITC = O=C1OC2(c3ccc(O)cc3Oc3cc(O)ccc32)c2ccc(NC(=S)*)cc21
Legend:
receptor ECD = receptor ECD binding; cited from earlier work
Method: The salmon calcitonin C-terminal fragment was reported to have micromolar affinity (KI 1~3 μM) both for calcitonin and amylin receptor ECDs. The fluorescein isothiocyanate (FITC)-labeled salmon calcitonin fragment (FITC-sCT(22–32)) was used as a peptide probe for the receptor–ligand binding assay in the current study. FITC addition to the N-terminus of an amylin receptor antagonistic peptide AC413(6–25) Y25P was previously shown to increase the peptide affinity for receptor ECD binding by more than 10-fold. Based on the binding affinity of FITC-sCT(22–32) measured in the current ...

[1] = target: T1, amylin receptor 1 ECD with calcitonin receptor N124A mutation (Homo sapiens, UniProt O60894+P30988, N124A); test: FP saturation binding, N124A; settings: for Average fluorescence intensity change upon receptor ECD binding: % of a free probe intensity, Mean ± S.D., N124A, max receptor 1 μM; for decrease of binding affinity: N124A versus wild-type receptor ECD
T1 construct: pHLsec/hRAMP1.24–111-(GSA)3-hCTR.34–141.N124A-H6 (D-pJS005); H6 (hexahistidine) (C); made in house; host or cells: HEK293 (transient transfection, secreted, N-glycosylated)
Text: pHLsec-based vectors were used to express wild-type and mutated amylin receptor 1 extracellular domains as secreted proteins to cell culture media. The plasmid DNA construct of the wild-type amylin receptor 1 extracellular domain, pHLsec/hRAMP1.24–111-(GSA)3-hCTR.34–141-H6 (H-pSL005) was previously described. The following DNA vector plasmids were made for this study: pHLsec/hRAMP1.24–111-(GSA)3-hCTR.34–141.D97A-H6 (D-pSL009), pHLsec/hRAMP1.24–111-(GSA)3-hCTR.34–141.D97E-H6 (D-pJS001), pHLsec/hRAMP1.24–111-(GSA)3-hCTR.34–141.D101A-H6 (D-pJJ003), pHLsec/hRAMP1.24–111-(GSA)3-hCTR.34–141.D101E-H6 (D-pJJ002), pHLsec/hRAMP1.24–111-(GSA)3-hCTR.34–141.E123A-H6 (D-pJJ004), pHLsec/hRAMP1.24–111-(GSA)3-hCTR.34–141.E123D-H6 (D-pJJ001), pHLsec/hRAMP1.24–111-(GSA)3-hCTR.34–141.N124A-H6 (D-pJS005), pHLsec/hRAMP1.24–111-(GSA)3-hCTR.34–141.N124D-H6 (D-pJS006), pHLsec/hRAMP1.24–111-(GSA)3-hCTR.34–141.N135A-H6 (D-pJW001), and pHLsec/hRAMP1.24–111-(GSA)3-hCTR.34–141.N135D-H6 (D-pJS002). The mutations were introduced to the calcitonin receptor extracellular domain by using DNA Assembly reaction. Coding sequences of the receptor expression vectors were confirmed with Sanger sequencing by Bionics (Seoul, Republic of Korea). DNA plasmid vectors were extracted and were purified from bacterial cells with NucleoBond® Extra Midi Plus kit (Macherey-Nagel, Germany). The purified DNA vectors were stored at −20 °C until their use for mammalian cell transfection.
The overall experimental procedure of reconstituting the functional amylin receptor 1 extracellular domain (ECD) as the fusion protein of RAMP1 ECD and the calcitonin receptor ECD was previously described. The wild-type and mutated amylin receptor 1 ECDs were expressed from HEK293 cells with transient transfection with polyethylenimine. The expressed receptor proteins were secreted to cell culture media for 4 days at 37 °C. The media were collected for the receptor protein purification. Initial dialysis was performed with the dialysis buffer (Tris 25 mM (pH 7.4), NaCl 150 mM, and imidazole 10 mM) overnight. […] Then, a size exclusion column chromatography (SEC) was performed with SEC column (Cytiva, HiLoad® 16/600 Superdex® 200 pg) and SEC buffer (Tris 50 mM (pH 7.4), NaCl 150 mM, and glycerol (v/v) 10%) as previously described. As the final step, the purified receptor proteins were dialyzed to storage buffer (HEPES 25 mM (pH 7.4), NaCl 150 mM, and glycerol (v/v) 50 %) and were stored at −60 °C until their use for the receptor–ligand binding assay. […]
The overall procedure of the FP binding assay with a saturation binding format was previously described. […] FITC-labeled peptide probes were incubated for 1 h at room temperature with the purified receptor protein prior to fluorescence signal measurement. […]

T1 sequence (O60894 24-111): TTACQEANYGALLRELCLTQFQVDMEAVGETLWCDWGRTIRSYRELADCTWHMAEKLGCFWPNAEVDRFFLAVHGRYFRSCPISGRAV
T1 sequence (P30988 34-141 N124A): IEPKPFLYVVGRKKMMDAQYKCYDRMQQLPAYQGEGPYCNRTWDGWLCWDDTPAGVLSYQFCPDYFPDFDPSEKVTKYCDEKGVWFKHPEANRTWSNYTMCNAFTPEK

Row | Compound | increase of peptide affinity by FITC addition to the N-terminus (receptor ECD) | Average fluorescence intensity change upon receptor ECD binding [1] | decrease of binding affinity [1]
1 | CC(C)C[C@H](NC(=O)[C@H](CCCNC(=N)N)NC(=O)[C@@H](NC(=O)[C@H](CC(C)C)NC(=O)[C@H](Cc1ccccc1)NC(=O)[C@H](CC(N)=O)NC(=O)[C@H](C)NC(=S)Nc1ccc2c(c1)C(=O)OC21c2ccc(O)cc2Oc2cc(O)ccc21)C(C)C)C(=O)N[C@@H](CCC(N)=O)C(=O)N[C@H](C(=O)N[C@@H](Cc1ccc(O)cc1)C(=O)N1CCC[C@H]1C(=O)N[C@@H](CCCNC(=N)N)C(=O)N[C@H](C(=O)N[C@@H](CC(N)=O)C(=O)N[C@H](C(=O)NCC(=O)N[C@@H](C)C(=O)N[C@@H](CC(N)=O)C(=O)N[C@H](C(=O)N1CCC[C@H]1C(N)=O)[C@@H](C)O)C(C)C)[C@@H](C)O)[C@@H](C)O [FITC-AC413(6–25) Y25P] ({FITC}-ANFLVRLQTYPRTNVGANTP-NH2; C-terminus assumed) | more than 10 fold | 87 ± 2% | 8.2 fold
2 | C[C@@H](O)[C@H](NC(=O)[C@H](CC(N)=O)NC(=O)[C@@H](NC(=O)[C@H](CCCNC(=N)N)NC(=O)[C@@H]1CCCN1C(=O)[C@H](Cc1ccc(O)cc1)NC(=S)Nc1ccc2c(c1)C(=O)OC21c2ccc(O)cc2Oc2cc(O)ccc21)[C@@H](C)O)C(=O)NCC(=O)N[C@@H](CO)C(=O)NCC(=O)N[C@H](C(=O)N1CCC[C@H]1C(N)=O)[C@@H](C)O [FITC-sCT(22–32)] ({FITC}-YPRTNTGSGTP-NH2; C-terminus assumed) |  | 85 ± 11% | more than 10 fold

Reference: publication PMC12292835, “Amylin Receptor 1 Mutagenesis Revealed a Potential Role of Calcitonin Serine 29 in Receptor Interaction” (Biomedicines, 2025)
